We go through 18 compounds from article PMC11269473, “Monoamine oxidase inhibition properties of 2,1-benzisoxazole derivatives” (Molecular Diversity, 2023).

One series has as its target T1, recombinant human MAO-A (Homo sapiens, UniProt P21397).
T1 construct: purchased Sigma-Aldrich; host or cells: insect cells (microsomes)
T1 sequence (P21397 1-527): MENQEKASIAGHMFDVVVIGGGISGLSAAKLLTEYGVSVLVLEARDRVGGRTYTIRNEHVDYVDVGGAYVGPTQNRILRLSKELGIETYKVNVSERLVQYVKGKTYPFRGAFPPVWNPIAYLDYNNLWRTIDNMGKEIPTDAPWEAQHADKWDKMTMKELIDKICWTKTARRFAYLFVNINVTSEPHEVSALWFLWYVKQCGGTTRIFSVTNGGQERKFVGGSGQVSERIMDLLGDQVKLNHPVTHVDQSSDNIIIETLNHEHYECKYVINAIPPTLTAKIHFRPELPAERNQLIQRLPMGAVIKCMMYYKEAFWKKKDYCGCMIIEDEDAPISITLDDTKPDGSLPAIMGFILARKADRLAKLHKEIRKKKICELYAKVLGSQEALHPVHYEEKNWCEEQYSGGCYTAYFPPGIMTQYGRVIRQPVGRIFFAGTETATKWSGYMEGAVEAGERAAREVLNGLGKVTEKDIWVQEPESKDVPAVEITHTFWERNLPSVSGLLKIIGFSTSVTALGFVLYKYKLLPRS
In words: MAO-A inhibition, IC50 determination with kynuramine as substrate (fluorescence of 4-hydroxyquinoline). Format: biochemical. The settings on record: 50 µM kynuramine, mean ± SD of triplicate, NI = no inhibition observed at 100 µM. On the procedure:
(§1) The MAO inhibition properties of the 2,1-benzisoxazole derivatives were investigated using the commercially available recombinant human MAO-A and MAO-B enzymes with kynuramine serving as substrate. MAO oxidizes kynuramine to yield 4-hydroxyquinoline, which was measured by fluorescence spectrophotometry.
(§2) For the MAO inhibition studies, a Varian Cary Eclipse fluorescence spectrophotometer was employed. Microsomes from insect cells containing recombinant human MAO-A and MAO-B (5 mg protein/mL) and kynuramine dihydrobromide were obtained from Sigma-Aldrich.
(§3) IC50 values for the inhibition of MAO were measured as described previously. Microsomes from insect cells containing recombinant human MAO-A and MAO-B (5 mg protein/mL) served as enzyme sources (Sigma-Aldrich) while kynuramine was used as non-specific MAO substrate. The enzyme reactions (200 µL reactions prepared in 96-well microtiter plates) contained phosphate buffer (100 mM, pH 7.4), 50 µM kynuramine and the test inhibitors at concentrations of 0.003–100 µM. […] The reactions were initiated with addition of MAO-A (0.0075 mg protein/mL) or MAO-B (0.015 mg protein/mL) and after 20 min of incubation at 37 °C, the reactions were terminated by the addition of 80 µL NaOH (2 N). The concentration of 4-hydroxyquinoline, the product of kynuramine oxidation by MAO, was measured by fluorescence spectrophotometry (λex = 310 nm; λem = 400 nm). IC50 values were estimated from sigmoidal plots of enzyme catalytic rate versus the inhibitor concentration (log[I]) which were constructed with the Prism software package (GraphPad). IC50 values were estimated in triplicate determinations from these plots and are expressed as mean ± standard deviation (SD).

The next series concerns the target T2, recombinant human MAO-B (Homo sapiens, UniProt P27338).
T2 construct: purchased Sigma-Aldrich; host or cells: insect cells (microsomes)
T2 sequence (P27338 1-520): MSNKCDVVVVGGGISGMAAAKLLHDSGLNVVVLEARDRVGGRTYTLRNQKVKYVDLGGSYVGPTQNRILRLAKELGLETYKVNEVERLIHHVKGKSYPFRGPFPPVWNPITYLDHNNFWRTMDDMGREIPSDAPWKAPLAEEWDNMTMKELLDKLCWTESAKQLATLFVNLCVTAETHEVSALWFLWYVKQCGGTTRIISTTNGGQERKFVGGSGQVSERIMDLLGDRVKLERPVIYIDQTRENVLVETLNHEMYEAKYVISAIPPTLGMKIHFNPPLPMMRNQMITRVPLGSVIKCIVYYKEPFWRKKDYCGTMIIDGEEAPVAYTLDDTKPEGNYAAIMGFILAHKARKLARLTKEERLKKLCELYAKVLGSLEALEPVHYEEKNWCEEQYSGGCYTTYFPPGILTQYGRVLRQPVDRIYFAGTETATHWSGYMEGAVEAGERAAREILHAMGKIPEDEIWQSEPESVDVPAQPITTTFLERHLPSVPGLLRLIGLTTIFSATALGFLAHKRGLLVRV
Put plainly: MAO-B inhibition, IC50 determination with kynuramine as substrate (fluorescence of 4-hydroxyquinoline). Particulars: for SI (selectivity index): SI = IC50(MAO-A)/IC50(MAO-B); for IC50: recombinant human MAO-B, 50 µM kynuramine, mean ± SD of triplicate, NI = no inhibition observed at 100 µM. Format: biochemical. On the procedure:
as §1, §2
as §3, with “The” for “The reactions were initiated with addition of MAO-A (0.0075 mg protein/mL) or MAO-B (0.015 mg protein/mL) and after 20 min of incubation at 37 °C, the reactions were terminated by the addition of 80 µL NaOH (2 N). The”

In general, IC50 refers to the concentration that inhibits the measured activity by half. As usually defined, the melting point is the temperature, or range, at which the solid turns liquid.

“And” between values parts separate entries of the source, which are not always exact repeats. Equal entries are not always repeated.

In the case of `COc1ccc(-c2onc3ccc(I)cc23)cc1` [Compound 3a, 5-Iodo-3-(4-methoxyphenyl)benzo[c]isoxazole], the melting point is 112 to 114 °C. In addition, the IC50 on recombinant human MAO-A was 19.4 ± 2.58 µM. Moreover, on recombinant human MAO-B, the “SI (selectivity index)” value came out at 6.4; the IC50 was < 6.59 µM and 3.03 µM.
Consider `Clc1ccc(-c2onc3ccc(I)cc23)cc1` [Compound 3b, 3-(4-Chlorophenyl)-5-iodobenzo[c]isoxazole], for which the melting point lay within 185 to 187 °C. In addition, the IC50 on recombinant human MAO-A was determined as 77.7 ± 5.97 µM. Also, on recombinant human MAO-B, the “SI (selectivity index)” value was 12; the 50% inhibitory concentration (IC50) is < 6.59 µM and 6.59 µM.
`Cc1ccc(-c2onc3ccc(Cl)cc23)cc1` [Compound 3c, 5-Chloro-3-(p-tolyl)benzo[c]isoxazole] gave a melting point of 136 to 138 °C. Further, the IC50 on recombinant human MAO-A is 8.76 ± 0.058 µM. Also, at recombinant human MAO-B, the “SI (selectivity index)” value was determined as 3.3 and the IC50 was 2.63 ± 0.178 µM.
Compound `C(#Cc1ccc2noc(-c3ccccc3)c2c1)c1ccccc1` [Compound 3d, 3-Phenyl-5-(phenylethynyl)benzo[c]isoxazole] showed a melting point of 143 to 144 °C. Further, on recombinant human MAO-A, the IC50 came out at 71.6 ± 3.08 µM. At recombinant human MAO-B, the “SI (selectivity index)” value amounted to 9.0 and the IC50 was 7.92 ± 0.684 µM.
The matching figures for `Cc1nc(-c2cc3noc(-c4ccccc4)c3cc2Cl)no1` [Compound 3e, 5-Chloro-6-(5-methyl-1,2,4-oxadiazol-3-yl)-3-phenylbenzo[c]isoxazole]: 171 to 172 °C, 8.95 ± 0.581 µM, 2.5 and 3.55 ± 0.037 µM.
`CC1(c2ccc3noc(-c4cccc(Cl)c4)c3c2)OCCO1` [Compound 3f, 3-(3-Chlorophenyl)-5-(2-methyl-1,3-dioxolan-2-yl)benzo[c]isoxazole]: the melting point was in the range of 175 to 177 °C. In addition, the IC50 on recombinant human MAO-A is over 100 µM. Moreover, the half-inhibitory concentration (IC50) on recombinant human MAO-B is 25.1 ± 2.41 µM.
The compound `Brc1ccc2noc(-c3ccccc3)c2c1` [Compound 3g, 5-Bromo-3-phenylbenzo[c]isoxazole] gave a melting point of 116 to 118 °C. The concentration for half-maximal inhibition (IC50) at recombinant human MAO-A was determined as 19.5 ± 3.2 µM. Also, on recombinant human MAO-B, the “SI (selectivity index)” value is given as 3.4 and the IC50 was 5.79 ± 0.013 µM.
Turning to `Ic1ccc2noc(-c3ccccc3)c2c1` [Compound 3h, 5-Iodo-3-phenylbenzo[c]isoxazole], the melting point fell in the range of 112 to 115 °C. The IC50 on recombinant human MAO-A was found to be 17.7 ± 0.424 µM. At recombinant human MAO-B, the “SI (selectivity index)” value amounted to 1.1; the half-inhibitory concentration (IC50) was < 16.3 µM and 16.3 µM.
Turning to `Cc1ccc(-c2onc3ccc(I)cc23)cc1` [Compound 3i, 5-Iodo-3-(p-tolyl)benzo[c]isoxazole], the melting point is 109 to 110 °C. Further, the IC50 on recombinant human MAO-A was determined as 43.9 ± 11.3 µM. On recombinant human MAO-B, the “SI (selectivity index)” value was 13; the IC50 was < 6.59 µM and 3.49 µM.
With `Clc1ccc2noc(-c3ccccc3)c2c1` [Compound 3j, 5-Chloro-3-phenylbenzo[c]isoxazole], the figures for the IC50 on recombinant human MAO-A and at recombinant human MAO-B were 10.6 ± 0.049 µM and 4.43 ± 0.12 µM, respectively.
The matching figures for `Clc1cc2noc(-c3ccccc3)c2cc1Cl` [Compound 3k, 6-Dichloro-3-phenylbenzo[c]isoxazole]: over 100 µM and 5.56 ± 0.73 µM.
The compound `Clc1ccc2noc(-c3ccc(Br)cc3)c2c1` [Compound 3m, 3-(4-Bromophenyl)-5-chlorobenzo[c]isoxazole] registered a melting point of 230 to 232 °C. Also, the IC50 at recombinant human MAO-A is 83.2 ± 33.3 µM. Also, at recombinant human MAO-B, the “SI (selectivity index)” value came to 71 and the IC50 is 1.18 ± 0.022 µM.
As to `Clc1ccc(-c2onc3ccc(Cl)cc23)cc1` [Compound 3n, 5-Chloro-3-(4-chlorophenyl)benzo[c]isoxazole], the melting point lay in the range of 229 to 232 °C. Besides, the IC50 on recombinant human MAO-A was 81.3 ± 28.7 µM. Further, on recombinant human MAO-B, the “SI (selectivity index)” value stood at 39 and the IC50 came out at 2.07 ± 0.381 µM.
The matching figures for `COc1ccc(-c2onc3ccc(Cl)cc23)cc1` [Compound 3o, 5-Chloro-3-(4-methoxyphenyl)benzo[c]isoxazole]: 174 °C, 8.49 ± 0.017 µM, 3.6 and 2.34 ± 0.055 µM.
Turning to `c1ccc(-c2onc3ccc(Oc4ccc5noc(-c6ccccc6)c5c4)cc23)cc1` [Compound 5, 5,5'-Oxybis(3-phenylbenzo[c]isoxazole)], the melting point was 190 to 192 °C. Further, on recombinant human MAO-A, the IC50 was 3.29 ± 0.254 µM. On recombinant human MAO-B, the “SI (selectivity index)” value is 0.33 and the IC50 was determined as 10 ± 0.949 µM.
As for `N#Cc1ccc(-c2onc3ccc(Cl)cc23)cc1` [Compound 7b, 4-(5-Chlorobenzo[c]isoxazol-3-yl)benzonitrile], the melting point was in the range of 236 to 237 °C. For the same compound, the IC50 at recombinant human MAO-A is 61 ± 9.19 µM. Further, on recombinant human MAO-B, the “SI (selectivity index)” value is listed as 622 and the IC50 was 0.098 ± 0.0036 µM. In addition, at recombinant human MAO-B (versus p-tolyl (3c), phenyl (3j), p-Br-phenyl (3m), p-Cl-phenyl (3n) and p-OCH3-phenyl (3o) homologues), the “fold more potent MAO-B inhibition than homologues” value is “at least 12 fold”.
On to `Cc1nc(-c2cc3noc(-c4ccc(C#N)cc4)c3cc2Cl)no1` [Compound 7c, 4-(5-Chloro-6-(5-methyl-1,2,4-oxadiazol-3-yl)benzo[c]isoxazol-3-yl)benzonitrile], for which the melting point was in the range of 257 to 258 °C. Further, the IC50 on recombinant human MAO-A is over 100 µM. Also, the half-inhibitory concentration (IC50) at recombinant human MAO-B was found to be 0.139 ± 0.044 µM.
With `COc1ccc2c(c1)[nH]c1c(C)nccc12` [Harmine, reference compound], at recombinant human MAO-B, the IC50 was over 100 µM.
